Molecules are shown by their SMILES. In brackets after ≈: the same amount, converted by molar mass. Numbered stars: 1 amine (or outer) side, 2 acyl side, 3 side chain; on linkers, the order of the positions; unused ones are H or OH. Bridge positions count the residues as written; N and C are the ends. Square brackets hold non-standard residues; d marks the D form. Peptide text beside a SMILES is read from it. * marks the point of attachment. X1 = O=C1C[C@@H](C(=O)[*:2])N([*:1])C[C@H]1CS[C@@H]1CN2CCC1CC2; NMePhe(4-NMe2) = CN[C@@H](Cc1ccc(N(C)C)cc1)C(=O)O; Picolinoyl(3-OH) = O=C(c1ncccc1O)*; Phg = N[C@H](C(=O)O)c1ccccc1; dAbu = CC[C@@H](N)C(=O)O

These results are taken from ChEMBL document CHEMBL1141145, “A chiral benzoquinolizine-2-carboxylic acid arginine salt active against vancomycin-resistant Staphylococcus aureus” (J Med Chem, 2005).

Data set [1] relates to Rattus norvegicus. Briefly: Amount of drug at which at 14 days of daily administration produced no venous blockage or phlebitis in rats. It is filed as functional.
The subject of data set [2] is Staphylococcus aureus. The experiment in a line: Minimum inhibitory concentration against methicillin susceptible Staphylococcus aureus. It counts as functional. The conditions noted are these: Staphylococcus aureus; read-out: MIC.
The test system of data set [3] is Mus musculus. The experiment in a line: Protection of mice infected with MRSA-32 cell suspension after oral administration of compound. It is filed as functional. The conditions noted are these: Mus musculus, MRSA-32, po; read-out: ED50.
A short description of data set [4]: physchem. The following applies: octanol/water, pH 2.
The nature of data set [5]: physchem. The following applies: octanol/water, pH 7.4.
The nature of data set [6]: physchem.
Data set [7] is described as follows: physchem. The source holds these as a separate data set.
Data set [8] concerns Staphylococcus aureus. The experiment in a line: microbe, parasite or virus in culture.
The subject of data set [9] is Staphylococcus aureus. Briefly: Minimum inhibitory concentration against vancomycin-resistant Staphylococcus aureus (Hershey). It is filed as functional.
For data set [10], the system named is Staphylococcus aureus. Briefly: microbe, parasite or virus in culture. This is another data set of the same source.
The test system of data set [11] is Staphylococcus aureus. Briefly: microbe, parasite or virus in culture. The source holds these as a separate data set.
The subject of data set [12] is Staphylococcus aureus. The experiment in a line: Minimum inhibitory concentration against vancomycin intermediate Staphylococcus aureus MU 3. It is filed as functional.
In data set [13] the test system is Staphylococcus aureus. The experiment in a line: Minimum inhibitory concentration against vancomycin intermediate Staphylococcus aureus MU 50. It is filed as functional.
Data set [14] has as its system Mus musculus. The experiment in a line: Efficacy against mice infected with MRSA-32 upon s.c. administration. The following applies: MRSA-32, sc. It counts as functional.
Data set [15] deals with Mus musculus. The experiment in a line: Efficacy against mice infected with MRSA-33 upon s.c. administration. The following applies: sc. It is filed as functional.
The test system of data set [16] is Mus musculus. The experiment in a line: Efficacy against mice infected with Staphylococcus aureus ATCC 25923 upon s.c. administration. It counts as functional. The following applies: sc.
The test system of data set [17] is Staphylococcus aureus. Briefly: Minimum inhibitory concentration against methicillin susceptible Staphylococcus aureus after esterase action in rat serum. It counts as functional.
In data set [18] the test system is Staphylococcus aureus. Briefly: Minimum inhibitory concentration against methicillin susceptible Staphylococcus aureus before esterase action in rat serum. It counts as functional.
The subject of data set [19] is Staphylococcus aureus. The experiment in a line: Minimum inhibitory concentration against Vancomycin intermediate Staphylococcus aureus MU 50. It is filed as functional.

Broadly, the ED50 is the midpoint of the dose-response relation. In data set [1], `C[C@H]1CCc2c(N3CCC(O)CC3)c(F)cc3c(=O)c(C(=O)[O-])cn1c23.[Na+]` displayed an NOEL of under 250 mg/kg. Also, the MIC in data set [2] turned out to be 0.03 µg/mL. The ED50 in data set [3] turned out to be 60 mg/kg.
By logD is commonly meant lipophilicity at a set pH, counting ionised and neutral species. High values mean higher lipophilicity, low ones lower lipophilicity. For orientation: pKa means the negative logarithm of the acid dissociation constant. On to `C[C@@H]1CN(c2c(F)c(N)c3c(=O)c(C(=O)O)cn(C4CC4)c3c2F)C[C@H](C)N1` [SPARFLOXACIN], for which the logD in data set [4] was -0.86; in [5], -0.02. Also, the pKa in [6] is 6.43; in data set [7], 9.38.
For the compound `CCN(CC)CCS(=O)(=O)[C@@H]1CCN2C(=O)c3coc(n3)CC(=O)C[C@H](O)/C=C(C)/C=C/CNC(=O)/C=C/[C@@H](C)[C@@H](C(C)C)OC(=O)[C@@H]12.CC[C@H]1NC(=O)[C@@H](NC(=O)c2ncccc2O)[C@@H](C)OC(=O)[C@H](c2ccccc2)NC(=O)[C@@H]2CC(=O)[C@H](CS[C@@H]3CN4CCC3CC4)CN2C(=O)[C@H](Cc2ccc(N(C)C)cc2)N(C)C(=O)[C@@H]2CCCN2C1=O` [QUINUPRISTIN/DALFOPRISTIN] ({Picolinoyl(3-OH)}-T[dAbu]P[NMePhe(4-NMe2)][X1][Phg]; ester 1-C), the MIC in data set [8] is 1 µg/mL; in data set [9], 1 µg/mL; in data set [10] it was 1 µg/mL; in data set [11], 0.5 µg/mL; in [12], 1 µg/mL; in data set [13], 1 µg/mL.
`CC(=O)NC[C@H]1CN(c2ccc(N3CCOCC3)c(F)c2)C(=O)O1` [LINEZOLID]: the ED50 in [14] was found to be 1.14 mg/kg; in data set [15], 3.1 mg/kg; in [16], 2.4 mg/kg.
Turning to `CCn1cc(C(=O)O)c(=O)c2cc(F)c(N3CCNCC3)cc21` [NORFLOXACIN], the logD is -1.46 in data set [4] and -1 in data set [5]. In data set [6], this compound registered a pKa of 6.54.
`C[C@H]1CCc2c(N3CCC(OC(=O)[C@H](N)CCCN=C(N)N)CC3)c(F)cc3c(=O)c(C(=O)O)cn1c23`: the MIC was determined as 0.1 µg/mL (≈ 0.194 µM) in data set [17] and 1 µg/mL (≈ 1.94 µM) in data set [18]. For the same compound, the ED50 in [3] was over 100 mg/kg.
`COC(=O)c1cn2c3c(c(N4CCC(O)CC4)c(F)cc3c1=O)CC[C@@H]2C`: the MIC was determined as 1 µg/mL (≈ 2.67 µM) in data set [17] and 8 µg/mL (≈ 21.4 µM) in [18]. Also, in data set [3], the ED50 is over 100 mg/kg.
Take `CN[C@H](CC(C)C)C(=O)N[C@H]1C(=O)N[C@@H](CC(N)=O)C(=O)N[C@H]2C(=O)N[C@H]3C(=O)N[C@H](C(=O)N[C@H](C(=O)O)c4cc(O)cc(O)c4-c4cc3ccc4O)[C@H](O)c3ccc(c(Cl)c3)Oc3cc2cc(c3O[C@@H]2O[C@H](CO)[C@@H](O)[C@H](O)[C@H]2O[C@H]2C[C@](C)(N)[C@H](O)[C@H](C)O2)Oc2ccc(cc2Cl)[C@H]1O` [VANCOMYCIN]: the ED50 in [14] was over 2.18 mg/kg; in [15], over 3.7 mg/kg; in data set [16], 6.11 mg/kg. For the same compound, the MIC worked out at 32 µg/mL (≈ 22.1 µM) in data set [9], 8 µg/mL (≈ 5.52 µM) in data set [12] and 16 µg/mL (≈ 11 µM) in data set [19].
For the compound `CO[C@@H]1C(OC2CCN(c3c(F)cc4c(=O)c(C(=O)O)cn5c4c3CC[C@@H]5C)CC2)O[C@@H](CO)[C@@H](O)[C@@H]1O` (single isomer, unassigned), the MIC in data set [17] and in data set [18] was 0.1 µg/mL (≈ 0.186 µM) in each case. In addition, the ED50 in data set [3] is over 100 mg/kg.
Turning to `COC(=O)COC(=O)c1cn2c3c(c(N4CCC(O)CC4)c(F)cc3c1=O)CC[C@@H]2C`, the MIC in [17] came to 4 µg/mL (≈ 9.25 µM); in data set [18], 8 µg/mL (≈ 18.5 µM). Further, the ED50 in data set [3] is over 150 mg/kg.
On to `C[C@H]1CCc2c(N3CCC(OC(=O)[C@@H](N)CCC/N=C(\N)N[N+](=O)[O-])CC3)c(F)cc3c(=O)c(C(=O)O)cn1c23.O=C(O)C(F)(F)F`, for which the MIC amounted to 0.06 µg/mL in data set [17] and 0.25 µg/mL in data set [18]. Also, in data set [3], the ED50 was over 75 mg/kg.
As for `CCOC(=O)COC(=O)c1cn2c3c(c(N4CCC(O)CC4)c(F)cc3c1=O)CC[C@@H]2C`, the MIC in data set [17] was 2 µg/mL (≈ 4.48 µM); in data set [18], 8 µg/mL (≈ 17.9 µM). Further, the ED50 in [3] is over 150 mg/kg.
For the compound `C[C@H]1CCc2c(N3CCC(OC(=O)C(C)(C)C)CC3)c(F)cc3c(=O)c(C(=O)O)cn1c23`, the MIC turned out to be 0.25 µg/mL (≈ 0.562 µM) in data set [17] and 0.5 µg/mL (≈ 1.12 µM) in data set [18]. Moreover, the ED50 in data set [3] was over 100 mg/kg.
As for `C[C@H]1CCc2c(N3CCC(O)CC3)c(F)cc3c(=O)c(C(=O)OCCN4CCNCC4)cn1c23`, the MIC in data set [17] turned out to be 0.12 µg/mL (≈ 0.254 µM); in data set [18], 0.5 µg/mL (≈ 1.06 µM). For the same compound, in data set [3], the ED50 is over 100 mg/kg.
